pEC50: −log10 of the molar value. “Also recorded” adds a separate entry of the source.
Experiments:
[1] = molecular target: T1, mutant huntingtin aggregates (HDex1Q68 fused to ECFP/EYFP) (Homo sapiens, UniProt P42858, INS38QQQQQQQQQQQQQQQQQQQQQQQQQQQQQQQQQQQQQQQQQQQQQQQ); experiment: Cellular FRET aggregation assay in stable Tet-off CHO-AA8/Q68-Q68 cells; format: cell-based; conditions: for apparent inhibitory effects due to toxic effects (concentration): FRET decrease attributed to toxicity
Procedure: To determine the potential of possibly inhibiting substances the inventors performed dose response assays at concentrations ranging from 1, to 100 μM.
Screening was performed in 96-well plates (greiner bio-one) containing 1×10^4 cells/well of the stably inducible tet off cell lines htt-mut (six-fold) and CHO-AA8 line (three fold) for background control. Simultaneously, each compound was checked for its potential autofluorescence.
Two stable inducible CHO Tet off cell lines were constructed expressing simultaneously wildtype (CHO-AA8/Q17-Q17) or mutant (CHO-AA8/Q68-Q68) huntingtin fragments fused to ECFP or EYFP (FIG. 1B) after withdrawal of doxicycline (dox). Basal and induced expression levels of huntingtin fusion proteins were examined by Western blot analysis at different time intervals (4, 24, 48, and 72 hours). […] For the screening approach stable inducible huntingtin expressing cell lines were seeded in 96-well plates and the fluorescence intensities were measured with a fluorescence plate reader.
The test compounds were mixed in a fresh doxicycline-free medium with 2% DMSO and added to the Tet off cell lines two to three hours after seeding and attachment of the cells.
(§1) The FRET-measurement was performed 48 h later.
Subsequently, a second screening round was performed at concentration range 1, 3, and 10 μM, respectively.

CHO-AA8/Q68-Q68 cells = experiment: Propidium iodide exclusion assay (viability, cell number) following the FRET assay; conditions: after 48 h; for Viability ↓ (concentration) / Viability (effect in words): propidium iodide exclusion
Procedure: CHO-AA8/Q68-Q68, CHO-AA8/Q17-Q17 and CHO-AA8 cells were seeded in 96 well plates. After attachment of the cells, the medium was exchanged for Ham's F 12 medium containing 10% doxicycline free FBS and 2% DMSO supplemented with compounds. After 48 h the fluorescence intensities of cells were measured using a fluorescence plate reader (Fluoroscan Ascent, Thermo Scietific) and filtersets for CFP (ex 444 nm, em 485 nm), YFP(ex 485 nm, em 538 nm) and FRET (ex 444 nm, em 538 nm). After correction of background fluorescence (subtraction of CHO-AA8 cell fluorescence intensities) the FRET signal was determined using the method: FA=(FRET-a*YFP)/CFP with a=0.11 (Zal u. Gascoigne 2004, Zal et al. 2002). In following, the viability of cells was measured using a propidium iodide exclusion assay (Sattler et al. 1997). PI was added to the cells at final concentration of 0.15 mg/ml. After 15 minutes the PI fluorescence intensity was measured (ex 530 nm, em 620 nm). The cells were then lysed with 0.5% Triton X-100 (TX100) and the PI fluorescence intensity was measured again. Viability of cells was calculated as viability=1−(PIbefore TX100/PIafter TX100).
as §1

[2] = molecular target: T2, GST-tagged mutant htt-exon-1 with 51 polyglutamines (GST-HDexQ51) (Homo sapiens, UniProt P42858, INS38QQQQQQQQQQQQQQQQQQQQQQQQQQQQQQ); experiment: Cell free filter retardation assay; format: biochemical; conditions: tested 1-200 μM
T2 construct: GST-tagged mutant htt-exon-1 with 51 polyglutamines (GST-HDexQ51); GST (N, cleaved yes)
Procedure: To determine if the cellular environment is a prerequisite for the inhibitory effect of the isolated natural compounds or if the compounds directly interfere with the aggregation process, the inventors performed a cell free filter retardation assay (Scherzinger et al., 1997).
Briefly, GST-tagged mutant htt-exon-1 with 51 polyglutamines (GST-HDexQ51) is incubated with the compounds and factor Xa to remove the GST tag for proper aggregation (16 h, 23° C.). The aggregated peptides are denaturized by boiling in SDS buffer (10 min, 99° C.) and filtered though a cellulose acetate membrane. The insoluble aggregates are retained at the membrane and detected with an anti-huntingtin antibody.
The isolated natural compounds, PGL-135 and congo red were tested in a concentration range of 1-200 μM. […] (Data not shown). Concentration of less than 50 μM congo red produced an enhancement of the aggregation process.

[3] = test system: mutant huntingtin aggregates; experiment: Filter retardation assay on lysates of treated cells (immunodetection); format: cell-based; conditions: increasing concentrations
Procedure: (C) Immunodetection of mutant huntingtin aggregates upon PGL-135 treatment of cells using a filter retardation assay.
The filter retardation assay was accomplished as described (Scherzinger et al., 1999). Cells were lysed (100 mM NaCl, 5 mM MgCl2, 0.5% NP-40, 1 mM EDTA, 50 mM Tris-HCl, protease inhibitors, 25 U/mL benzonase, pH 8.8), denatured 5 min at 95° C. with 2% SDS/50 mM DTT and cell lysates equal 2 μg protein were filtered through a 0.2 μm cellulose acetate membrane (Schleicher & Schuell) using a dot blot unit. The immunodetection was performed using the same antibody detection system as described above. Quantitative determination of the relative aggregate amount was evaluated with the Lumi Imager F1 System and Lumi Analyst 3.0 (Boehringer Mannheim, Germany).
The coherence between decreasing FRET values and less polyglutamine aggregates in PGL-135 treated cells was further validated by fluorescence microscopy imaging (data not shown) and a filter retardation assay (Heiser et al., 2000) (FIG. 2C).

[4] = molecular target: T1, mutant huntingtin aggregates (HDex1Q68 fused to ECFP/EYFP); experiment: Cellular FRET aggregation assay in stable Tet-off CHO-AA8/Q68-Q68 cells; format: cell-based; conditions: half-maximal inhibition of FRET signal, dose response 0.7-50 μM

T1 sequence (P42858 1-88, stated change not applied): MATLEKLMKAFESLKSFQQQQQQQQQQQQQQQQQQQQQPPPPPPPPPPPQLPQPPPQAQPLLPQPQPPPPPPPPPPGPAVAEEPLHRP
T2 sequence (P42858 with tags, fused parts or gaps with the stated changes): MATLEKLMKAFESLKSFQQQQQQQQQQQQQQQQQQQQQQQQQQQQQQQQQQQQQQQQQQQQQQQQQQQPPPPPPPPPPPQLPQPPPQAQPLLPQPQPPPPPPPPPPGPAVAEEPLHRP

Molecule	Cell number ↓ (concentration) (CHO-AA8/Q68-Q68 cells)	FRET-signal (effect in words) ([1]; 48 h, 2% DMSO)	Cell number (effect in words) (CHO-AA8/Q68-Q68 cells)	Viability (effect in words) (CHO-AA8/Q68-Q68 cells)	further results
C=CCNC1=C2C[C@@H](C)C[C@H](OC)[C@H](O)[C@@H](C)/C=C(\C)[C@H](OC(N)=O)[C@@H](OC)/C=C\C=C(/C)C(=O)NC(=CC1=O)C2=O [17-AAG]	↓ ≧0.3 μM	–	–	–	FRET-signal ↓ (concentration from which aggregation is reduced) ([1]; 48 h, 2% DMSO): ↓ ≧0.3 μM; apparent inhibitory effects due to toxic effects (concentration) [1]: > 0.7 µM; Viability ↓ (concentration) (CHO-AA8/Q68-Q68 cells): ↓ ≧0.3 μM
CN(CC(=O)O)C(=N)N [Creatine]	–	no effect	no effect	no effect	FRET-signal (effect in words) ([1]; 48 h, 2% DMSO, listed as creatin): no effects
NCCSSCCN [Cystamine]	–	no effect	no effect	no effect	FRET-signal (effect in words) ([1]; 48 h, 2% DMSO, listed as cystamine dihydrochloride): no effects
O=C(O)Cc1ccccc1Nc1c(Cl)cccc1Cl [Diclofenac]	↓ ≧250 nM	no effect	–	no effect	FRET-signal (effect in words) ([1]; 48 h, 2% DMSO, listed as diclofenac): no effects
COc1ccc2c(c1)c(CC(=O)O)c(C)n2C(=O)c1ccc(Cl)cc1 [Indomethacin]	↓ ≧1.25 μM	–	–	–	FRET-signal ↓ (concentration from which aggregation is reduced) ([1]; 48 h, 2% DMSO): ↓ ≧1.25 μM; Viability ↓ (concentration) (CHO-AA8/Q68-Q68 cells): ↓ 10 μM
CC(Cc1ccc(O)c(O)c1)C(C)Cc1ccc(O)c(O)c1 (stereo not shown) [NDGA]	↓ 500 nM	no effect	–	no effect	–
Cc1cc(O)c(C)c2sc(N)nc12 [PGL-135]	–	decrease	no effect	not affected; also recorded: without affecting the cell viability; also recorded: no effect	inhibition of aggregate formation (in words) [2]: Only congo red reliably inhibited the formation of aggregates; mutant huntingtin aggregates in filter retardation assay [3]: significant decrease
Nc1nc2ccc(OC(F)(F)F)cc2s1 [Riluzole]	–	–	no effect	no effect	–
C=C1[C@@H]2CC[C@@]3(C)[C@H](c4ccoc4)OC(=O)C[C@]13O[C@H]1CC(=O)C(C)(C)[C@H](CC(=O)OC)[C@]12C [S2, angolensic acid methylester]	–	–	–	–	pEC50 [4]: 5.52
O=C(CCCCCN1C(=O)c2cccc3cccc(c23)C1=O)NO [Scriptaid]	↓ ≧25 μM	–	decreased	–	FRET-signal ↑ (concentration from which aggregation is increased) ([1]; 48 h, 2% DMSO): ↑ ≧25 μM; Viability ↓ (concentration) (CHO-AA8/Q68-Q68 cells): ↓ ≧25 μM
OC[C@H]1O[C@H](O[C@H]2O[C@H](CO)[C@@H](O)[C@H](O)[C@H]2O)[C@H](O)[C@@H](O)[C@@H]1O [Trehalose]	–	no effect	no effect	no effect	FRET-signal (effect in words) ([1]; 48 h, 2% DMSO, listed as threhalose): no effects
C[C@@H](N)[C@H]1CC[C@H](C(=O)Nc2ccncc2)CC1 [Y-27632]	–	no effect	no effect	no effect	apparent inhibitory effects due to toxic effects (concentration) [1]: > 12.5 µM
O=C(O)c1cc(/N=N/c2ccc(-c3ccc(/N=N/c4ccc(O)c(C(=O)O)c4)cc3)cc2)ccc1O [chrysamine G]	–	no effect	no effect	no effect	FRET-signal (effect in words) ([1]; 48 h, 2% DMSO, listed as Chrysamine G): no effects
COC1=C(OC)C(=O)C(C/C=C(\C)CC/C=C(\C)CC/C=C(\C)CC/C=C(\C)CC/C=C(\C)CC/C=C(\C)CC/C=C(\C)CC/C=C(\C)CC/C=C(\C)CCC=C(C)C)=C(C)C1=O [coenzyme Q10]	–	no effect	no effect	no effect	–
Nc1c(/N=N/c2ccc(-c3ccc(/N=N/c4cc(S(=O)(=O)O)c5ccccc5c4N)cc3)cc2)cc(S(=O)(=O)O)c2ccccc12 [congo red]	↓ ≧125 μM	–	–	no effect	enhancement of the aggregation process (concentration) ([2]; 16 h, 23° C.): less than 50 μM; inhibited the formation of aggregates (concentration) ([2]; 16 h, 23° C.): > 50 µM; FRET-signal ↓ (concentration from which aggregation is reduced) ([1]; 48 h, 2% DMSO): ↓ ≧30 μM; FRET-signal ↓ (concentration from which aggregation is reduced) ([1]; 48 h, 2% DMSO, listed as Congo red): > 30 µM
COC1=C2C[C@@H](C)C[C@H](OC)[C@H](O)[C@@H](C)/C=C(\C)[C@H](OC(N)=O)[C@@H](OC)/C=C\C=C(/C)C(=O)NC(=CC1=O)C2=O [geldanamycin]	–	–	no effect	no effect	–
O=C([O-])c1ccccc1O.[Na+] [sodiumsalicylat]	–	no effect	–	no effect	FRET-signal (effect in words) ([1]; 48 h, 2% DMSO, listed as sodiumsalyicylate): no effects
half-Chrysamine G	–	no effect	no effect	no effect	FRET-signal ↓ (concentration from which aggregation is reduced) ([1]; 48 h, 2% DMSO): > 2.5 µM
